Results as given in ChEMBL document CHEMBL1201862, “PubChem BioAssay data set” (2004).
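1) Cells in 96-well plates. 2) Compound, 48 h, 5 concentrations. 3) Linear interpolation between surrounding doses. 4) Unreached endpoint = highest concentration. GI50 = concentration required for 50% inhibition of growth.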 Active and inactive are the calls of the source. Rule as the data show it: active = GI50 up to about 1.1 µM and inactive = higher.

What was measured:
Assay in all cases: NCI tumour cell line growth inhibition, 48 h
NCI-H226 = system: NCI-H226
CAKI-1 = system: CAKI-1
Malme-3M = system: Malme-3M
SK-OV-3 = system: SK-OV-3
SNB-19 = system: SNB-19
KM-20L2 = system: KM-20L2
OVCAR-5 = system: OVCAR-5
U-251 = system: U-251
SNB-78 = system: SNB-78
TK-10 = system: TK-10
UACC-62 = system: UACC-62
SN12C = system: SN12C
DMS-273 = system: DMS-273
NCI-H23 = system: NCI-H23
DMS-114 = system: DMS-114
OVCAR-3 = system: OVCAR-3
HOP-92 = system: HOP-92
XF498 = system: XF498
HCT-116 = system: HCT-116
SF-268 = system: SF-268
SW-620 = system: SW-620
SR = system: SR
A549 = system: A549
SNB-75 = system: SNB-75
COLO 205 = system: COLO 205
HOP-18 = system: HOP-18
RXF 393 = system: RXF 393
SF-539 = system: SF-539
M19-MEL = system: M19-MEL
CCRF-CEM = system: CCRF-CEM
SK-MEL-28 = system: SK-MEL-28
HT-29 = system: HT-29
OVCAR-8 = system: OVCAR-8
NCI-H460 = system: NCI-H460
K562 = system: K562
M14 = system: M14
RXF 631 = system: RXF 631
HL-60 = system: HL-60
MOLT-4 = system: MOLT-4
ACHN = system: ACHN
HOP-62 = system: HOP-62
SK-MEL-5 = system: SK-MEL-5
A498 = system: A498
EKVX = system: EKVX
IGROV-1 = system: IGROV-1
LOX IMVI = system: LOX IMVI
UO-31 = system: UO-31
SK-MEL-2 = system: SK-MEL-2
KM12 = system: KM12
UACC-257 = system: UACC-257
RPMI-8226 = system: RPMI-8226
OVCAR-4 = system: OVCAR-4
SF-295 = system: SF-295
DLD-1 = system: DLD-1
786-0 = system: 786-0
NCI-H522 = system: NCI-H522
LXFL 529 = system: LXFL 529
HCT-15 = system: HCT-15

Compound: OCC(CO)C1c2cccc3ccc4cccc1c4c23
- GI50 (NCI-H226): 67.5 µM (inactive)
- GI50 (CAKI-1): > 100 µM (inactive)
- GI50 (Malme-3M): > 100 µM (inactive)
- GI50 (SK-OV-3): > 100 µM (inactive)
- GI50 (SNB-19): > 100 µM (inactive)
- GI50 (KM-20L2): > 100 µM (inactive)
- GI50 (OVCAR-5): > 100 µM (inactive)
- GI50 (U-251): > 100 µM (inactive)
- GI50 (SNB-78): > 100 µM (inactive)
- GI50 (TK-10): > 100 µM (inactive)
- GI50 (UACC-62): > 100 µM (inactive)
- GI50 (SN12C): > 100 µM (inactive)
- GI50 (DMS-273): > 100 µM (inactive)
- GI50 (NCI-H23): > 100 µM (inactive)
- GI50 (DMS-114): > 100 µM (inactive)
- GI50 (OVCAR-3): > 100 µM (inactive)
- GI50 (HOP-92): 80.9 µM (inactive)
- GI50 (XF498): > 100 µM (inactive)
- GI50 (HCT-116): > 100 µM (inactive)
- GI50 (SF-268): > 100 µM (inactive)
- GI50 (SW-620): > 100 µM (inactive)
- GI50 (SR): > 100 µM (inactive)
- GI50 (A549): > 100 µM (inactive)
- GI50 (SNB-75): 54.1 µM (inactive)
- GI50 (COLO 205): > 100 µM (inactive)
- GI50 (HOP-18): > 100 µM (inactive)
- GI50 (RXF 393): > 100 µM (inactive)
- GI50 (SF-539): > 100 µM (inactive)
- GI50 (M19-MEL): > 100 µM (inactive)
- GI50 (CCRF-CEM): > 100 µM (inactive)
- GI50 (SK-MEL-28): > 100 µM (inactive)
- GI50 (HT-29): > 100 µM (inactive)
- GI50 (OVCAR-8): > 100 µM (inactive)
- GI50 (NCI-H460): > 100 µM (inactive)
- GI50 (K562): > 100 µM (inactive)
- GI50 (M14): > 100 µM (inactive)
- GI50 (RXF 631): > 100 µM (inactive)
- GI50 (HL-60): > 100 µM (inactive)
- GI50 (MOLT-4): > 100 µM (inactive)
- GI50 (ACHN): > 100 µM (inactive)
- GI50 (HOP-62): > 100 µM (inactive)
- GI50 (SK-MEL-5): > 100 µM (inactive)
- GI50 (A498): > 100 µM (inactive)
- GI50 (EKVX): 87.9 µM (inactive)
- GI50 (IGROV-1): > 100 µM (inactive)
- GI50 (LOX IMVI): > 100 µM (inactive)
- GI50 (UO-31): 62.5 µM (inactive)
- GI50 (SK-MEL-2): > 100 µM (inactive)
- GI50 (KM12): > 100 µM (inactive)
- GI50 (UACC-257): > 100 µM (inactive)
- GI50 (RPMI-8226): > 100 µM (inactive)
- GI50 (OVCAR-4): > 100 µM (inactive)
- GI50 (SF-295): > 100 µM (inactive)
- GI50 (DLD-1): > 100 µM (inactive)
- GI50 (786-0): > 100 µM (inactive)

Compound: O=C(CCc1nnc(S)[nH]1)Nc1ccc(Cl)c(Cl)c1
- GI50 (NCI-H226): > 100 µM (inactive)
- GI50 (CAKI-1): > 100 µM (inactive)
- GI50 (Malme-3M): > 100 µM (inactive)
- GI50 (SK-OV-3): > 100 µM (inactive)
- GI50 (SNB-19): > 100 µM (inactive)
- GI50 (KM-20L2): 6.12 µM (inactive)
- GI50 (OVCAR-5): 33.8 µM (inactive)
- GI50 (U-251): 99.5 µM (inactive)
- GI50 (SNB-78): > 100 µM (inactive)
- GI50 (TK-10): 79.4 µM (inactive)
- GI50 (UACC-62): 2.98 µM (inactive)
- GI50 (SN12C): > 100 µM (inactive)
- GI50 (DMS-273): 19.8 µM (inactive)
- GI50 (NCI-H23): 53.3 µM (inactive)
- GI50 (DMS-114): 23.5 µM (inactive)
- GI50 (OVCAR-3): 40.6 µM (inactive)
- GI50 (HOP-92): 53.2 µM (inactive)
- GI50 (XF498): > 100 µM (inactive)
- GI50 (HCT-116): 47 µM (inactive)
- GI50 (SF-268): 42.8 µM (inactive)
- GI50 (SW-620): 41.3 µM (inactive)
- GI50 (SR): 51.2 µM (inactive)
- GI50 (A549): 40.9 µM (inactive)
- GI50 (SNB-75): 20 µM (inactive)
- GI50 (COLO 205): > 100 µM (inactive)
- GI50 (HOP-18): > 100 µM (inactive)
- GI50 (SF-539): 62.5 µM (inactive)
- GI50 (M19-MEL): 43.6 µM (inactive)
- GI50 (CCRF-CEM): 80.4 µM (inactive)
- GI50 (SK-MEL-28): 71.6 µM (inactive)
- GI50 (NCI-H522): 23.4 µM (inactive)
- GI50 (HT-29): > 100 µM (inactive)
- GI50 (OVCAR-8): > 100 µM (inactive)
- GI50 (NCI-H460): 90.8 µM (inactive)
- GI50 (K562): 9.1 µM (inactive)
- GI50 (M14): 27.4 µM (inactive)
- GI50 (RXF 631): 72.3 µM (inactive)
- GI50 (HL-60): 82.4 µM (inactive)
- GI50 (MOLT-4): 45.8 µM (inactive)
- GI50 (ACHN): 12.6 µM (inactive)
- GI50 (LXFL 529): 13.2 µM (inactive)
- GI50 (HOP-62): 20 µM (inactive)
- GI50 (SK-MEL-5): 14.1 µM (inactive)
- GI50 (HCT-15): 6.25 µM
- GI50 (A498): > 100 µM (inactive)
- GI50 (EKVX): > 100 µM (inactive)
- GI50 (IGROV-1): 26.5 µM (inactive)
- GI50 (UO-31): 45.6 µM (inactive)
- GI50 (SK-MEL-2): 6.18 µM (inactive)
- GI50 (KM12): 21.9 µM (inactive)
- GI50 (UACC-257): 34.8 µM (inactive)
- GI50 (RPMI-8226): > 100 µM (inactive)
- GI50 (OVCAR-4): 58.2 µM (inactive)
- GI50 (SF-295): 50.6 µM (inactive)
- GI50 (DLD-1): > 100 µM (inactive)
- GI50 (786-0): > 100 µM (inactive)
